Key:
TX synthase = target: T1, TX synthase (Homo sapiens, UniProt P24557); test: collagen-evoked TxB2 (and HHT) formation in washed human platelets, HPLC; type: cell-based; details: for TX enzyme activity (% of control values, mean ± SD): n = 3, TxB2 and HHT
T1 construct: endogenous in cells; host or cells: washed human platelets
T1 sequence (P24557 1-533): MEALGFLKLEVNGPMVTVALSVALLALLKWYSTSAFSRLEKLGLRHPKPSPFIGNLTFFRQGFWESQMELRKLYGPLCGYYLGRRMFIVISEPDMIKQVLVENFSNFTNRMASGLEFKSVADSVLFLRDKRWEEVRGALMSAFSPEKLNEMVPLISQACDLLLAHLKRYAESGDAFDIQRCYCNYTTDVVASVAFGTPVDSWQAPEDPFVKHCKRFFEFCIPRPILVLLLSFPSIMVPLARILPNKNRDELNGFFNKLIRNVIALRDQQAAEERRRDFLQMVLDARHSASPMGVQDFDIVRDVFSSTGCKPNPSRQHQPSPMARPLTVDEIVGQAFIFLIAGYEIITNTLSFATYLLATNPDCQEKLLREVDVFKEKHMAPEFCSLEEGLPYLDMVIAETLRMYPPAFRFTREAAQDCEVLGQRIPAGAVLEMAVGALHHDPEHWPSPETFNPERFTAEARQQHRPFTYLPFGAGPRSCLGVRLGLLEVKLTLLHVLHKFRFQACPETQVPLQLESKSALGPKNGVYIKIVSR
Experimental: (§1) 0.5 ml of platelet suspension was added to siliconized glass tubes (four at a time) and heated with magnetic stirring to 37° for 1 min in a platelet aggregometer (PAP-4C). Either vehicle alone (ethanol, 1 μl) or hepoxilin analog was then added, followed two min later by agonist (collagen: 2 μg; PGH2: 100 ng/0.5 ml; U46619: 10 ng/0.5 ml or I-BOP: 2 ng/0.5 ml). The response was recorded for the next 5 min. In experiments where analysis of TxB2 and HHT were to be made by HPLC, the platelet suspension at the end of the experiment was diluted with ethyl acetate, 100 ng of prostaglandin B1 was added as internal standard, and the mixture was acidified to pH 3 with 0.1 N HCl. After centrifugation, the organic layer was separated, washed twice with water to neutrality, and evaporated to dryness. Half of the sample was taken and was resuspended in 1 ml ethyl acetate containing 20 μg ADAM reagent, and was left in the dark for 2 h (38). The solvent was then evaporated and the residue was acetylated with a solution of pyridine/acetic anhydride (3/1, v/v) during 16 h at 23°. The reagents were evaporated to dryness and the residue was resuspended in acetonitrile/water for HPLC analysis. In experiments where the conversion of tritiated PGH2 was to be monitored, the procedure described above was repeated with tritiated PGH2 instead of unlabeled PGH2. After extraction of the sample as described above, the radiolabeled compounds were analyzed by TLC. Dose response curves for varying amounts of test compounds were generated and the data expressed as % inhibition of collagen-induced platelet aggregation. Each point was investigated 5 times and statistical analysis of the data was carried out using Macintosh Statview statistical software.
Measurement of eicosanoids formed by platelets during treatment with collagen or the TP receptor agonists in the presence or absence of PBT-3 was carried out by HPLC after appropriate derivatization with a fluorescent tag (anthracyl diazomethane—ADAM) which forms a fluorescent ester (44). The method was adapted to measure the following compounds: TxB2, HHT, 12-HETE and M. The platelet suspension at the end of the experiment was mixed with ethyl acetate, 100 ng of prostaglandin B1 was added as internal standard and the mixture was acidified to pH 3 with 0.1 N HCl. After centrifugation, the organic layer was separated, washed twice with water to neutrality, and evaporated to dryness. The residue was resuspended in ethyl acetate and half of the sample was taken. It was diluted to 0.2 ml with ethyl acetate containing 20 μg ADAM reagent, and was left in the dark for 2 h. The solvent was then evaporated and the residue was acetylated with a solution of pyridine/acetic anhydride (3/1, v/v) for 16 h at 23°. The reagents were evaporated to dryness and the residue was resuspended in acetonitrile/water for HPLC analysis. Dose response curves for varying amounts of test compounds were generated and the data were expressed as % inhibition of agonist-induced platelet aggregation. Each point was investigated 3 times and statistical analysis of the data was carried out using Macintosh Statview statistical software.
Analysis of the anthryl (ADAM)-acetate derivative of TxB2, HHT and 12 HETE in the extracted platelet samples was carried out on a Hewlett Packard (1100 series) HPLC to which was attached a Shimadzu fluorescent detector (RF-10AXL). The detector was operated with excitation at 364 nm, emission at 411 nm. Chromatographic separation of the compound was carried out on a Waters C18 Novapak column (3.9×300 mm) using acetonitrile/water 80/20 at injection with a linear gradient to 100% acetonitrile during 20 min. TLC separation of tritiated platelet extracts was carried out on 20 cm silica gel G glass plates (Brinkman), with chloroform/methanol/acetic acid/water (90/9/1/0.65, v/v) as developing solvent in a paper lined glass tank at 23°. […]

TxB2 formation = test: metabolism of [3H]-PGH2 to TxB2 by human platelets, TLC; type: cell-based; details: two doses of PBT-3, TLC profile
Experimental: as §1, with “The solvent was then evaporated and the residue was acetylated with a solution of pyridine/acetic anhydride (3/1, v/v) during 16 h at 23°. The reagents were evaporated to dryness and the residue was resuspended in acetonitrile/water for HPLC analysis.” left out, “Each point was investigated 5 times and statistical analysis of the data was carried out using Macintosh Statview statistical software.” left out

CCCCC/C=C\CC1CC1[C@@H](O)/C=C\C/C=C\CCCC(=O)OC (stereo partly drawn) [PBT-3, 10(S)-hydroxy-11,12-cyclopropyl-eicosa-5Z,8Z,14Z-trienoic acid methyl ester]
TX enzyme activity (% of control values, mean ± SD) (TX synthase; PBT-3 0.05 μM): 94.2 ± 15.2^NS % of control | TX enzyme activity (% of control values, mean ± SD) (TX synthase; PBT-3 0.30 μM): 65.7 ± 6.0 % of control | TX enzyme activity (% of control values, mean ± SD) (TX synthase; PBT-3 0.60 μM): 41.0 ± 4.7 % of control | TX enzyme activity (% of control values, mean ± SD) (TX synthase; PBT-3 3.00 μM): 29.9 ± 6.7 % of control | inhibition of TxB2 formation in platelets, in words (TX synthase; Table 1, last column): significantly inhibited | IC50 (TX synthase; washed human platelets, read-out: IC50 for block of collagen-evoked formation of thromboxane): 0.8 µM | inhibition of formation of tritiated TxB2 from [3H]-PGH2 (TxB2 formation): inhibitory action
